Assay results reported in publication PMC11050087, “Polyphenols from Maackia amurensis Heartwood Protect Neuronal Cells from Oxidative Stress and Prevent Herpetic Infection” (International Journal of Molecular Sciences, 2024).
Values joined by “and” are separate entries in the source; they are usually repeats but may differ in a detail not shown here. Equal entries are not always repeated.

Key:
HSV-1 [1] = assay: Virucidal activity, RT-PCR assay (HSV-1 pretreated with compounds); format: cell-based, HSV-1 strain L2; settings: for Ct: 72 h; for −ΔCt: vs virus control
Protocol: Vero cells grown on 96-well plates were infected with the virus (100 TCID50/mL), pretreated with polyphenolic compounds at concentrations 0.1, 1 and 10 μg/mL. After 72 h of cell incubation, viral DNA was extracted from the supernatants, and the relative level of HSV-1 DNA was determined using RT-PCR. The effect of polyphenols on the relative level of viral DNA was assessed using the 2^−∆Ct method and reported as fold reduction compared to virus control.
(§1) The HSV-1 strain L2 obtained from N.F. Gamaleya Federal Research Centre for Epidemiology and Microbiology (Moscow, Russia) was grown in Vero cells as previously described.
(§2) We determined the direct inhibitory effect of polyphenolic compounds from M. amurensis heartwood on HSV-1 (virucidal effect). We mixed the virus at an infectious dose (100 TCID50/mL) with polyphenolic compounds (from 0.1 to 100 µg/mL) at a ratio of 1:1 (v/v) and incubated for an hour at 37 °C. Then, we infected the monolayer of Vero cells grown on 96-well plates (1 × 10^4 cells/well) with HSV-1 pretreated with the studied compounds. After 1 h adsorption at 37 °C, the cells were washed with phosphate-buffered saline (PBS) and overlaid by the maintenance medium with 1% FBS. The plates were incubated for 72 h at 37 °C in a CO2-incubator. The cytopathic effect (CPE) inhibition assay and real-time reverse transcription-PCR (RT-PCR) assay were used to evaluate virucidal effect of the tested compounds.
We performed the RT-PCR assay as we previously described in detail in [22]. Briefly, HSV-1 DNA was extracted after incubation from cell supernatants by using the DNA-sorb-AM (K1-12-100-CE) nucleic acid extraction kit (AmpliSens®, Moscow, Russia) according to the manufacturer′s instructions. We treated the supernatants with a lysis solution that contained guanidine chloride (chaotropic agent) in the presence of sorbent (silica particles). As the elution solution was added, the DNA was […] silica particles and separated from the sorbent particles by centrifugation.
We detected the DNA of HSV-1 in the obtained samples using the AmpliSens® HSV I, II-FRT-100F PCR kit (AmpliSens®, Moscow, Russia) on a real-time PCR instrument Rotor-Gene Q (Qiagen, Hilden, Nordrhein-Westfalen, Germany) according to the manufacturer′s instructions. The PCR reaction conditions were the following: initial denaturation at 95 °C for 15 min; then 5 cycles at 95 °C for 5 s, at 60 °C for 20 s, at 72 °C for 15 s; then 40 cycles at 95 °C for 5 s, at 60 °C for 20 s, and at 72 °C for 15 s. A negative sample was used as the amplification control for each run. The threshold cycle number Ct, was measured as the PCR cycle, where the amount of the amplified target reached the threshold value; the Ct values ≥ 37 indicated the absence of the HSV-1 DNA in the samples. We assessed the anti-HSV-1 activity of the studied compounds by the reduction in the viral DNA levels using the 2^−ΔCt method according to Equation (2):(2) ΔCt=Ctcv−Cttv where Ct is the threshold cycle number measured as the PCR cycle, where the amount of the amplified target reached the threshold value, […]

[2] = Cytotoxicity against Vero cells (MTT assay); format: cell-based; settings: African green monkey
Protocol: We prepared the stock solutions of the tested compounds (10 mg/mL) in DMSO (Sigma, St. Louis, MO, USA). For the MTT assay and further studies of anti-HSV-1 activity, we diluted the stock solutions with DMEM so that the final concentration of DMSO was 0.5%.
We used MTT assay to determine the cytotoxic effect of the tested compounds against Vero cells. We performed the MTT assay as previously described.

HSV-1 [3] = assay: Virucidal activity, CPE inhibition assay (HSV-1 pretreated with compounds); format: cell-based, HSV-1 strain L2
Protocol: The antiviral activity of polyphenols from M. amurensis against HSV-1 was assessed using the cytopathic effect inhibition (CPE) assay. To study the inhibitory effect of polyphenolic compounds directly on the HSV-1 virus (direct virucidal activity), the monolayer of Vero cells grown on 96-well plates (1 × 10^4 cells/well) was infected with the virus (100 TCD50/mL), pretreated with different concentrations of polyphenolic compounds.
as §1, §2
We previously described this method in detail in [22]. We performed the MTT assay to evaluate the antiviral activity of polyphenolic compounds. The viral inhibition rate (IR, %) was calculated according to Equation (1):(1) IR, %=Atv−Acv/Acd−Acv×100, where Atv is the absorbance of cells infected with HSV-1 pretreated with the studied compounds,
We calculated the selectivity index (SI) as the ratio of CC50 to IC50. Experiments were repeated three times.

[4] = test system: 6-OHDA-treated Neuro-2a cells; assay: Apoptosis profile by flow cytometry (Annexin V & Dead Cell Kit); format: cell-based, murine; settings: Table 1; polyphenols 10 µM, 6-OHDA 100 µM, 24 h; mean
Protocol: We investigated the effect of polyphenolic compounds from M. amurensis on apoptosis profile in 6-OHDA-treated Neuro-2a cells by flow cytometry using fluorescent annexin V conjugate as a fluorescent dye. We observed significant changes in apoptosis profile in Neuro-2a cells after 6-OHDA-treatment. […] Polyphenols 3, 6 and 13 diminished the neurotoxic effect of 6-OHDA-treatment.
The cells were incubated for 1 h in a 6-well plate (5 × 10^4 cells/mL) with polyphenolic compounds (10 µM). Then, 6-OHDA (100 µM) was added, and cell suspension was incubated for 24 h. After incubation, the maintenance media was collected, and the cells were washed by cold PBS twice and incubated with trypsin-EDTA solution. The cell suspension was washed with cold PBS twice again, centrifugated and then used for apoptosis detection by Muse® Annexin V & Dead Cell Kit in accordance with the manufacturer’s instructions (Luminex, Austin, TX, USA). The fluorescence was measured with Muse® Cell Analyzer (Luminex, Austin, TX, USA) and the data were processed by Muse 1.5 Analysis software (Luminex, Austin, TX, USA).

[5] = test system: 6-OHDA-treated Neuro-2a cells; assay: ROS analysis in 6-OHDA-treated cells (H2DCF-DA); format: cell-based, murine; settings: compound 0.1 µM
Protocol: We studied the effect of polyphenolic compounds set on ROS levels in 6-OHDA-treated Neuro-2a cells (Figure 5a–d).
(§3) Figure 5 The effect of polyphenolic compounds isolated from M. amurensis heartwood on ROS levels in Neuro-2a cells treated with 6-OHDA (120 μM) (a–d). Polyphenolic compounds isolated from M. amurensis heartwood were used at concentrations 10, 1, 0.1 μM. The data are presented as means ± SEM of three independent replicates.
After 24 h of adhesion, Neuro-2a cells (5 × 10^4 cells/mL) were incubated with polyphenolic compounds at concentrations of 0.1, 1, and 10 µM for 1 h. Then, 120 µM of 6-OHDA or 1 mM of PQ were added to each well, and cells were incubated for 1 h. To study the ROS formation, 20 µL of 2,7-dichlorodihydrofluorescein diacetate solution (H2DCF-DA, Sigma-Aldrich, St. Louis, MO, USA) were added to each well, so that the final concentration was 10 µM. Then, the microplate was incubated for 30 min at 37 °C.

[6] = test system: 6-OHDA-treated Neuro-2a cells; assay: Mitochondrial membrane potential detection (TMRM) in 6-OHDA-treated cells; format: cell-based, murine; settings: compound 10 µM; 6-OHDA 120 µM
Protocol: We determined the effect of polyphenolic compounds from M. amurensis on 6-OHDA-induced mitochondrial dysfunction in Neuro-2a cells (Figure 6a,b).
as §3, with “6” for “5”, “mitochondrial membrane potential” for “ROS levels”, “(a,b).” for “(a–d).”, “replicates. (*) and (***) indicate, respectively, p < 0.05 and p < 0.001 versus 6-OHDA-treated cells.” for “replicates.”
The cells were incubated for 1 h in a 96-well plate (1 × 10^4 cells/well) with polyphenolic compounds (0.1, 1 and 10 µM). Then, 6-OHDA (120 µM) was added, and cell suspension was incubated for 1 h. Cells incubated without 6-OHDA and compounds and with 6-OHDA alone were used as positive and negative control, respectively. The tetramethylrhodamine methyl (TMRM) (Sigma-Aldrich, St. Louis, MO, USA) solution (500 nM) was added to each well and cells were incubated for 30 min at 37 °C. The intensity of fluorescence was measured using a PHERAstar FSplate reader (BMG Labtech, Ortenberg, Germany) at λex = 540 nm and λem = 590 nm. The data were processed by MARS Data Analysis v. 3.01R2 (BMG Labtech, Ortenberg, Germany).

[7] = Human alphaherpesvirus 1, 72 h, read-out: 2^−ΔCt
[8] = Human alphaherpesvirus 1, 72 h, read-out: log10

For COc1ccc([C@H]2COc3cc(O)ccc3[C@@H]2c2c(O)cc(O)cc2/C=C/c2ccc(O)c(O)c2)c(O)c1 [Compound 14, maackiapicevestitol], the Ct (HSV-1 [1]; 0.1 µg/mL) was 18.4 ± 2.4, the “−ΔCt” value (HSV-1 [1]; 0.1 µg/mL) was −0.30 ± 0.03 and the Ct (HSV-1 [1]; 1 µg/mL) was 19.2 ± 2.5. For the same compound, the “−ΔCt” value (HSV-1 [1]; 1 µg/mL) was −1.1 ± 0.1, the “anti-HSV-1 activity by RT-PCR (in words)” value (HSV-1 [1]; 10 µg/mL) was “significantly reduced the level of viral DNA” and the Ct (HSV-1 [1]; 10 µg/mL) was 27.1 ± 3.8. The “−ΔCt” value (HSV-1 [1]; 10 µg/mL) was −9.0 ± 1.2, the activity at 0.1 µg/mL (HSV-1 [1]; [7]) was 81.2 ± 11% and the activity at 1 µg/mL (HSV-1 [1]; [7]) was 46.6 ± 5.6%. It also gave an activity at 10 µg/mL (HSV-1 [1]; [7]) of 0.195 ± 0.02%, a log reduction at 0.1 µg/mL (HSV-1 [1]; [8]) of 0.09 ± 0.01 and a log reduction at 1 µg/mL (HSV-1 [1]; [8]) of 0.33 ± 0.04. The log reduction at 10 µg/mL (HSV-1 [1]; [8]) was 2.7 ± 0.3, the CC50 [2] was 162 µg/mL and 316 µM and the IC50 (HSV-1 [3]; Human alphaherpesvirus 1, virus pretreated with compound (virucidal), CPE assay, Vero cells, 100 TCID50/mL) was 8.6 µg/mL and 16.7 µM. The SI (HSV-1 [3]; ratio of CC50 to IC50, virucidal scheme) was 18.9 ± 2.8.
With retusin [Compound 3] the “virucidal activity against HSV-1 by RT-PCR (in words)” value (HSV-1 [1]; 0.1, 1 and 10 µg/mL) was “did not demonstrate virucidal activity”, the Dead [4] was 1.18 ± 0.24% and the Early apop. [4] was 19.63 ± 0.79 %. For the same compound, the “Late apop./Dead” value [4] was 11.31 ± 0.49%, the Live [4] was 67.89 ± 1.52 % and the “inhibition of ROS formation in 6-OHDA-treated Neuro-2a cells (in words)” value [5] was “considerably inhibited ROS formation”. For the same compound, the “virucidal activity against HSV-1 (in words)” value (HSV-1 [3]; CPE assay, virus pretreated with compound) was “did not show virucidal activity” and the “effect on mitochondrial membrane potential (in words)” value [6] was “weak activity”.
